Key:
[1] = Accelerated stability test (HPLC impurities, content, crystal form); format: physicochemical; settings: for Crystal form / Content / Individual impurity / Total impurity: 4θ±2° C. and RH 75±5%; for Content / Individual impurity / Total impurity: wt %
Procedure: The powder of the crystal form I compound according to above Example 8 was doubly packed with an LDPE bag, then packed with a paperboard tube, and left alone at 4θ±2° C. and RH 75±5% for zero and six months, after which impurities were measured by using a high speed liquid chromatography under the following conditions.
<HPLC Conditions> • Detector: Ultraviolet absorption spectrophotometer (wavelength: 307 nm) • Column: Kromasil 100-5C18 (4.6×250 mm, […]) or a column similar thereto • Column temperature: 25° C. • Injection amount: 10 μl • Mobile phase: Mobile phase A—20 mmol/L of ammonium acetate buffer solution (pH 4.5, acetic acid), Mobile phase B—acetonitrile:methanol=8:2

[2] = Hygroscopicity (Dynamic Vapor Sorption, DVS) measurement; format: physicochemical; settings: 25° C.; for hygroscopicity (overall assessment): DVS 0 to 95 % RH
Procedure: The hygroscopicity was tested by using the crystal form I of above Example 8.
i) Model name: DVS Intrinsic (Surface Measurement Systems LTD. UK)
ii) Humidity: Initial 0% maximum 95%
iii) Experiment time: 7 hours
After placing a certain amount (10 mg) of the crystal form I compound prepared in Example 8 on a sample pan in a sample chamber, nitrogen was flowed through a tube connected into the sample chamber for the first one hour so as to remove moisture in the chamber and moisture of the sample. Humidity in the chamber was controlled by controlling water vapor, and target relative humidity was increased step by step from initial 0% to 10% every 20 minutes, so as to measure a moisture content of crystal form I for 205 min. A mass of the sample was measured […] (from 0% RH to 95% RH) to collect data at 10% RH intervals, and a change in weight of the sample according to the increase and decrease of humidity was graphed.

[3] = Long-term stability test; format: physicochemical; settings: for Content / Individual impurity / Total impurity / Crystal form: 25±2° C. and RH 6θ±5%; for Content / Individual impurity / Total impurity: capsule in PTP packing, wt %
Procedure: The powder of the crystal form I compound according to above Example 8 was doubly packed with an LDPE bag, then packed with a paperboard tube, and filled into a capsule, after which the capsule was subjected to PTP packing to carry out a long-term stability test (25±2° C. and RH 6θ±5%).

[4] = Stress stability test (temperature / humidity); format: physicochemical; settings: for Content / Individual impurity / Total impurity: wt %
Procedure: The crystal form I prepared in above Example 8 was left alone under the stress conditions (temperature: 60° C., humidity: 40° C., RH75%) for 0, 7 and 14 days, after which impurities were measured by using high speed liquid chromatography.

[5] = Pharmacokinetic (PK) test, oral capsule in beagle dog; format: in vivo; settings: 100 mg oral, powder in capsule
Procedure: A pharmacokinetic (PK) experiment was performed on the crystal form I compound according to Example 8.
The powder of the crystal form I compound of Example 8 was filled into a capsule in an amount of 100 mg, and the capsule was orally administered to a beagle dog at 100 mg once a day, and then the biokinetics of the drug was confirmed.
Specifically, 100 mg of the crystal form I compound was orally administered to the beagle dog, and blood was collected at a predetermined time, so as to measure a concentration of (S)-4-((1-(4,8-dichloro-1-oxo-2-phenyl-1,2-dihydroisoquinoline-3-yl)ethyl)amino)pyrido[2,3-d]pyrimidine-5(8H)-one. With respect to pharmacokinetic parameters, the BA Calc 2007 program was used to calculate an area under the plasma concentration-time curve from dosing time to final plasma concentration quantification time t (AUCt), area under the plasma concentration-time curve from dosing time to infinite time (AUCi), peak plasma concentration (Cmax), time for maximum plasma concentration (Tmax), and terminal elimination half-life (t1/2). As a result, a significance between substances was confirmed by Student t-test (SPSS) at a 95% confidence interval, and the results thereof are shown in table 2 below.

[6] = stress: humidity (40° C., RH75%), 7 days
[7] = stress: humidity (40° C., RH75%), 14 days
[8] = stress: humidity (40° C., RH75%), zero day (initial)
[9] = stress: temperature (60° C.), 7 days
[10] = stress: temperature (60° C.), 14 days
[11] = stress: temperature (60° C.), zero day (initial)

Question: With `C[C@H](Nc1ncnc2[nH]ccc(=O)c12)c1c(Cl)c2cccc(Cl)c2c(=O)n1-c1ccccc1` [Crystal form I, (S)-4-((1-(4,8-dichloro-1-oxo-2-phenyl-1,2-dihydroisoquinoline-3-yl)ethyl)amino)pyrido[2,3-d]pyrimidin-5(8H)-one] as the compound, how does the Crystal form ([1]; six months) read?
Answer: Its Crystal form is “Form I”.

Question: And the Content ([1]; six months)?
Answer: The Content was 99.7%.

Question: What about the Individual impurity ([1]; six months) of the same compound?
Answer: The Individual impurity was 0.02%.

Question: And the Total impurity ([1]; six months)?
Answer: The Total impurity was 0.16%.

Question: And the Crystal form ([1]; zero month (initial))?
Answer: Its Crystal form is “Form I”.

Question: And the Content ([1]; zero month (initial))?
Answer: Its Content is 100.0%.

Question: And the Individual impurity ([1]; zero month (initial))?
Answer: The Individual impurity was 0.02%.

Question: And the Total impurity ([1]; zero month (initial))?
Answer: The Total impurity was 0.14%.

Question: And the “change of impurities and content (in words)” value (shortened to “change”) ([1]; accelerated conditions, six months)?
Answer: Its value is “neither significant change nor change with time”.

Question: And the “hygroscopicity (overall assessment)” value [2]?
Answer: Its value is “non-hygroscopicity”.

Question: And the “hygroscopicity (overall assessment)” value ([2]; listed as crystal form I)?
Answer: The value was “remarkably excellent non-hygroscopicity”.

Question: And the water (moisture) content by DVS ([2]; relative humidity 0.0 %)?
Answer: The water (moisture) content by DVS was 0.01%.

Question: And the water (moisture) content by DVS ([2]; relative humidity 10.0 %)?
Answer: Its water (moisture) content by DVS is 0.06%.

Question: What about the water (moisture) content by DVS ([2]; relative humidity 20.0 %) of the same compound?
Answer: Its water (moisture) content by DVS is 0.11%.

Question: What about the water (moisture) content by DVS ([2]; relative humidity 30.0 %) of the same compound?
Answer: The water (moisture) content by DVS was 0.16%.

Question: What about the water (moisture) content by DVS ([2]; relative humidity 40.0 %) of the same compound?
Answer: The water (moisture) content by DVS was 0.2%.

Question: What about the water (moisture) content by DVS ([2]; relative humidity 50.0 %) of the same compound?
Answer: The water (moisture) content by DVS was 0.24%.

Question: And the water (moisture) content by DVS ([2]; relative humidity 60.0 %)?
Answer: Its water (moisture) content by DVS is 0.28%.

Question: And the water (moisture) content by DVS ([2]; relative humidity 70.0 %)?
Answer: Its water (moisture) content by DVS is 0.33%.

Question: And the water (moisture) content by DVS ([2]; relative humidity 80.0 %)?
Answer: Its water (moisture) content by DVS is 0.38%.

Question: What about the water (moisture) content by DVS ([2]; relative humidity 90.0 %) of the same compound?
Answer: The water (moisture) content by DVS was 0.46%.

Question: And the water (moisture) content by DVS ([2]; relative humidity 95.0 %)?
Answer: Its water (moisture) content by DVS is 0.54%.

Question: And the Content ([3]; six months)?
Answer: Its Content is 99.7%.

Question: What about the Individual impurity ([3]; six months) of the same compound?
Answer: Its Individual impurity is 0.02%.

Question: What about the Total impurity ([3]; six months) of the same compound?
Answer: The Total impurity was 0.15%.

Question: And the Content ([3]; zero month (initial))?
Answer: Its Content is 100.0%.

Question: What about the Individual impurity ([3]; zero month (initial)) of the same compound?
Answer: Its Individual impurity is 0.02%.

Question: What about the Total impurity ([3]; zero month (initial)) of the same compound?
Answer: The Total impurity was 0.14%.

Question: What about the Crystal form ([3]; six months) of the same compound?
Answer: Its Crystal form is “Form I”.

Question: And the Crystal form ([3]; zero month (initial))?
Answer: The Crystal form was “Form I”.

Question: And the “change” value ([3]; long-term conditions, six months)?
Answer: The value was “neither significant change nor change with time”.

Question: And the “change” value ([4]; stress conditions, 0, 7 and 14 days)?
Answer: The value was “neither significant change nor change with time”.

Question: What about the Content [4, 6] of the same compound?
Answer: Its Content is 99.6%.

Question: And the Individual impurity [4, 6]?
Answer: Its Individual impurity is 0.58%.

Question: What about the Total impurity [4, 6] of the same compound?
Answer: The Total impurity was 0.64%.

Question: And the Content [4, 7]?
Answer: The Content was 100.8%.

Question: And the Individual impurity [4, 7]?
Answer: Its Individual impurity is 0.58%.

Question: What about the Total impurity [4, 7] of the same compound?
Answer: Its Total impurity is 0.65%.

Question: What about the Content [4, 8] of the same compound?
Answer: The Content was 99.1%.

Question: What about the Individual impurity [4, 8] of the same compound?
Answer: The Individual impurity was 0.58%.

Question: And the Total impurity [4, 8]?
Answer: Its Total impurity is 0.66%.

Question: And the Content [4, 9]?
Answer: Its Content is 100.0%.

Question: And the Individual impurity [4, 9]?
Answer: The Individual impurity was 0.58%.

Question: And the Total impurity [4, 9]?
Answer: The Total impurity was 0.64%.

Question: What about the Content [4, 10] of the same compound?
Answer: Its Content is 99.7%.

Question: And the Individual impurity [4, 10]?
Answer: The Individual impurity was 0.58%.

Question: And the Total impurity [4, 10]?
Answer: Its Total impurity is 0.65%.

Question: And the Content [4, 11]?
Answer: Its Content is 99.1%.

Question: What about the Individual impurity [4, 11] of the same compound?
Answer: The Individual impurity was 0.58%.

Question: What about the Total impurity [4, 11] of the same compound?
Answer: Its Total impurity is 0.66%.

Question: And the “bioavailability (in words)” value [5]?
Answer: Its value is “excellent bioavailability”.

Question: And the “concentration in blood (in words)” value [5]?
Answer: Its value is “high concentration in blood”.

Question: And the AUC(0-inf) ([5]; plasma)?
Answer: Its AUC(0-inf) is 559 ng·h/mL.

Question: What about the AUC(0-t) ([5]; plasma) of the same compound?
Answer: The AUC(0-t) was 540 ng·h/mL.

Question: What about the Cmax ([5]; plasma) of the same compound?
Answer: Its Cmax is 215 ng/mL.

Question: What about the Tmax ([5]; plasma) of the same compound?
Answer: Its Tmax is 1.25 h.

Question: And the half-life ([5]; plasma)?
Answer: The half-life was 93.6 min.
